Test results: US6461834B1, “Clostripain catalyzed amidation of peptides” (Bionebraska, Inc., priority 1998, dated 2002)

How the values were obtained:
[1] = molecular target: T1, clostripain (Hathewaya histolytica, UniProt P09870); experiment: Effect of organic solvent on clostripain proteolytic activity (N-Bz-Phe-Val-Arg-p-nitroanilide substrate, photometric initial rates); format: biochemical; conditions: varying amounts of organic solvent, otherwise as Table III
T1 construct: This protease is a heterodimer; purchased Worthington
Experimental: A substrate solution (1 mL) of 2 mg N-Bz-Phe-Val-Arg-p-nitroanilide in 2.5 mM dithiothreitol, 1 mM calcium chloride, 50 mM Tricine buffer at pH 8.5 was incubated at room temperature with 10 μg of clostripain, in an aqueous solution containing 10% (v/v) of organic solvent. Initial rates were determined by photometric detection of the liberated […].
These reactions were repeated in the presence of varying amounts of organic solvent, and optimal concentrations for proteolytic activity were determined for propylene carbonate (10%), N,N-dimethylformamide (20%), trifluoroethanol (20%), and acetonitrile (20%).

[2] = molecular target: T1, clostripain; experiment: Inhibition of clostripain amidation activity by organic solvent (GLP-1(7-36)Ala-Phe-Ala-Hse substrate, HPLC); format: biochemical; conditions: 2 M ammonium acetate, pH 10.4, 45° C., maximal attained amidation level
Experimental: Maximal attained amidation level in the presence of various organic solvents was determined with GLP-1(7-36)Ala-Phe-Ala-Hse (SEQ ID NO:1; 2 mg/mL) in 2.5 mM DTT, 1 mM calcium chloride, 2 M ammonium acetate, pH 10.4, at 45° C., with 20 μg clostripain in a 1 mL reaction. Aliquots of the reaction mixture were removed at regular time intervals, quenched with acetic acid and assayed by HPLC analysis on a reverse phase HPLC column.

[3] = format: physicochemical
[4] = tested on: GLP-1(7-36)Ala-Phe-Ala-Hse; experiment: Amidation by other Arg-specific proteases; format: biochemical; conditions: 1 M ammonium hydroxide, pH 10 and 8.5 (cathepsin B also pH 5.5), enzyme:substrate 1:50 to 1:100
Experimental: GLP-1(7-36)Ala-Phe-Ala-Hse (SEQ ID NO:1) (between 0.5 and 2 mg/mL) was dissolved in 1 M ammonium hydroxide at pH 10 and 8.5 and incubated individually with six different proteolytic enzymes, five of which have a specificity to cleave peptides at the carboxyl peptide bond of arginine residues, similar to that of clostripain. These included trypsin, thrombin, cathepsin B (also tested at pH 5.5), coagulation factor Xa, plasmin and papain. Papain is a thiol protease, albeit one which is not specific to arginyl bonds. […] Enzyme:substrate ratios were between 1:50 to 1:100 and protease specific additives were added where appropriate (e.g., calcium chloride).

Molecule	optimal concentration for proteolytic activity [1]	production of GLP-1(7-36)NH2 (reversed phase chromatography) [4]	other results
CC#N [Acetonitrile]	20%	–	Extent of amidation (% of substrate converted) ([2]; 20% organic solvent): 18%
CN(C)C=O [Dimethylformamide, N,N-dimethylformamide]	20%	–	–
CC1COC(=O)O1 (centres unmarked) [Propylene carbonate]	10%	–	Extent of amidation (% of substrate converted) ([2]; 10% organic solvent): 29%
OCC(F)(F)F [Trifluoroethanol]	–	–	Extent of amidation (% of substrate converted) ([2]; 20% organic solvent): 9%
His-Ala-Glu-Gly-Thr-Phe-Thr-Ser-Asp- Val-Ser-Ser-Tyr-Leu-Glu-Gly-Gln-Ala-Ala-Lys-Glu-Phe-Ile-Ala-Trp-Leu- Val-Lys-Gly-Arg-NH2 [GLP-1(7-36)NH2]	–	–	formation of D-contaminants ([3]; in water, pH about 4 to 8.4, −20° C. to 45° C., similar period of time): essentially no formation of D-contaminants; degradation ([3]; pH 9.4): 9%; degradation into D-contaminants ([3]; pH 10.5): a substantial amount of the peptide was degraded into D-contaminants
thrombin	–	None of these proteases produced any GLP-1(7-36)NH2	–
trypsin	–	None of these proteases produced any GLP-1(7-36)NH2	–
clostripain: extracellular thiol endoprotease from Clostridia, high specificity for Arg-Xaa peptide linkages (protein, UniProt P09870 51-181; P09870 191-526, looked up) Clostripain light chain: NKNQKVTIMYYCDADNNLEGSLLNDIEEMKTGYKDSPNLNLIALVDRSPRYSSDEKVLGEDFSDTRLYKIEHNKANRLDGKNEFPEISTTSKYEANMGDPEVLKKFIDYCKSNYEADKYVLIMANHGGGAR Clostripain heavy chain: AICWDDSNLDKNGEADCLYMGEISDHLTEKQSVDLLAFDACLMGTAEVAYQYRPGNGGFSADTLVASSPVVWGPGFKYDKIFDRIKAGGGTNNEDDLTLGGKEQNFDPATITNEQLGALFVEEQRDSTHANGRYDQHLSFYDLKKAESVKRAIDNLAVNLSNENKKSEIEKLRGSGIHTDLMHYFDEYSEGEWVEYPYFDVYDLCEKINKSENFSSKTKDLASNAMNKLNEMIVYSFGDPSNNFKEGKNGLSIFLPNGDKKYSTYYTSTKIPHWTMQSWYNSIDTVKYGLNPYGKLSWCKDGQDPEINKVGNWFELLDSWFDKTNDVTGGVNHYQW	–	produced measureable GLP-1(7-36)NH2	–
papain: thiol protease which is not specific to arginyl bonds (protein, UniProt P00784 134-345, looked up) Papain: IPEYVDWRQKGAVTPVKNQGSCGSCWAFSAVVTIEGIIKIRTGNLNEYSEQELLDCDRRSYGCNGGYPWSALQLVAQYGIHYRNTYPYEGVQRYCRSREKGPYAAKTDGVRQVQPYNEGALLYSIANQPVSVVLEAAGKDFQLYRGGIFVGPCGNKVDHAVAAVGYGPNYILIKNSWGTGWGENGYIRIKRGTGNSYGVCGLYTSSFYPVKN	–	None of these proteases produced any GLP-1(7-36)NH2	–
plasmin: proteolytic enzyme cleaving at the carboxyl peptide bond of arginine residues (protein, UniProt P00747 20-580; P00747 581-810, looked up, Plasmin, proteolytic enzyme cleaving at the carboxyl peptide bond of arginine residues) Plasmin heavy chain A: EPLDDYVNTQGASLFSVTKKQLGAGSIEECAAKCEEDEEFTCRAFQYHSKEQQCVIMAENRKSSIIIRMRDVVLFEKKVYLSECKTGNGKNYRGTMSKTKNGITCQKWSSTSPHRPRFSPATHPSEGLEENYCRNPDNDPQGPWCYTTDPEKRYDYCDILECEEECMHCSGENYDGKISKTMSGLECQAWDSQSPHAHGYIPSKFPNKNLKKNYCRNPDRELRPWCFTTDPNKRWELCDIPRCTTPPPSSGPTYQCLKGTGENYRGNVAVTVSGHTCQHWSAQTPHTHNRTPENFPCKNLDENYCRNPDGKRAPWCHTTNSQVRWEYCKIPSCDSSPVSTEQLAPTAPPELTPVVQDCYHGDGQSYRGTSSTTTTGKKCQSWSSMTPHRHQKTPENYPNAGLTMNYCRNPDADKGPWCFTTDPSVRWEYCNLKKCSGTEASVVAPPPVVLLPDVETPSEEDCMFGNGKGYRGKRATTVTGTPCQDWAAQEPHRHSIFTPETNPRAGLEKNYCRNPDGDVGGPWCYTTNPRKLYDYCDVPQCAAPSFDCGKPQVEPKKCPGR Plasmin light chain B: VVGGCVAHPHSWPWQVSLRTRFGMHFCGGTLISPEWVLTAAHCLEKSPRPSSYKVILGAHQEVNLEPHVQEIEVSRLFLEPTRKDIALLKLSSPAVITDKVIPACLPSPNYVVADRTECFITGWGETQGTFGAGLLKEAQLPVIENKVCNRYEFLNGRVQSTELCAGHLAGGTDSCQGDSGGPLVCFEKDKYILQGVTSWGLGCARPNKPGVYVRVSRFVTWIEGVMRNN	–	None of these proteases produced any GLP-1(7-36)NH2	–
